According to patent US20250188110A1, “SPECIFIC SMALL MOLECULE INHIBITORS THAT BLOCK KMT9 METHYLTRANSFERASE ACTIVITY AND FUNCTION” (ALBERT-LUDWIGS-UNIVERSITÄT FREIBURG, priority 2021, published 2025):
Read-outs that look alike come from different tables or passages of the source.

Key:
KMT9 [1] = biological target: T1, KMT9 (Homo sapiens, UniProt Q9Y5N5); test: KMT9 methyltransferase inhibition assay, MTaseGlo luminescence (from entry 155); type: biochemical; settings: 100 nM KMT9, 5 μM ETF1, 1 μM SAM
T1 sequence (Q9Y5N5 1-214): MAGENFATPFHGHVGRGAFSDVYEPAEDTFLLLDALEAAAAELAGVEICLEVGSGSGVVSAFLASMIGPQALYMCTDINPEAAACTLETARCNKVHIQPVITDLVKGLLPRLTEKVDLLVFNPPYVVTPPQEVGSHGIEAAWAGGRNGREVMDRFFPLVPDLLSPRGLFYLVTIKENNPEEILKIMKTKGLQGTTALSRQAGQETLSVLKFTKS
T1 sequence (Q9UI30 1-120 isoform Q9UI30-2 partner): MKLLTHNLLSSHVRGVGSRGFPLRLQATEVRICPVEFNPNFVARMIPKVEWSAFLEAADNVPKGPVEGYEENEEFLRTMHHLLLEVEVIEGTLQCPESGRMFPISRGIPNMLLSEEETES
Description: For the compounds from entry 155 on in Table 1, the following procedure was used to determine IC50 values: The assay was carried out in white, opaque 384-well OptiPlates (PerkinElmer). For IC50 determination, a 2.5x substrate mix (final assay concentrations: 5 μM ETF1, 1 μM SAM and 1x MTaseGlo Reagent), a 2.5x KMT9 solution (final assay concentration 100 nM) and a 5x inhibitor stock 1:1 dilution series (concentration according to the desired range; dilution series was prepared in assay buffer containing 10% DMSO to obtain a final DMSO concentration of 2% in the assay) were prepared. 2 μL of 5x inhibitor stock and 4 μL of 2.5x KMT9 were pipetted, the plate was spun down at 700 rpm for 1 min using a Hettich UNIVERSAL 320 centrifuge and incubated at room temperature (around 25° C.) for 15 min. The reaction was initiated by adding 4 μL of 2.5x substrate mix, the plate was spun down as described before and incubated at 30° C. for 2 h. Afterwards, 10 μL of 2× MTaseGlo Detection solution was added, the plate was centrifuged as described above and incubated for 60 min at room temperature. Luminescence was measured using a PerkinElmer EnVision 2102 Multilabel Reader. Calculation of inhibition and data fitting was carried out as for entries 1-154. described above.
For the results of the methyltransferase inhibition assay shown as “Inhibition” in Table 1, “I” represents an IC50 less than 0.1 μM, “II” represents an IC50 equal or higher than 0.1 μM and less than 1 μM, “III” represents an IC50 equal or higher than 1 µM and less than 10 µM and “IV” represents an IC50 equal or higher than 10 µM

KMT9 [2] = biological target: T1, KMT9; test: Microscale thermophoresis (MST) KMT9 binding
Summary of the method: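 Kd from microscale thermophoresis: compound series against 20 nM His-KMT9 labelled via RED-Tris-NTA, buffer 25 mM HEPES (pH 7.5)/100 mM NaCl/1 mM DTT/0.05% Tween, 40% MST power, 100% LED. Reported as classes: A ≤10 nM, B >10–100 nM, C >100–1000 nM, D >1000 nM.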

KMT9 [3] = biological target: T1, KMT9; test: KMT9 thermal shift assay (SyproOrange); type: binding
Summary of the method: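 ΔTm versus DMSO-only control is reported in bins (>20 K, 15–20 K, 10–15 K, ≤10 K), using Tm from Boltzmann sigmoidal fits of SyproOrange melt curves. KMT9 with compound in pH 8.5 BTP buffer containing MgCl2 and DTT was preincubated at 25° C, then ramped 1° C per 15 s up to 95° C.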

[4] = IC50 class, MTaseGlo procedure (entries from 155 on), read-out: Inhibition
[5] = His-tag labelled KMT9 20 nM, Kd class, read-out: MST
[6] = ΔTm class, 500 uM compound, 2 μM KMT9, read-out: Thermal shift
[7] = from entry 155: MTaseGlo assay, read-out: Inhibition
[8] = microscale thermophoresis, His-tag labelled KMT9 (20 nM), read-out: MST
[9] = ΔTm, 500 µM compound, 2 μM KMT9, 5X SO, read-out: Thermal shift
[10] = MTaseGlo procedure (entries from 155), read-out: Inhibition (IC50)
[11] = His-tag labelled KMT9 20 nM, read-out: MST (Kd)
[12] = 500 µM compound, 2 μM KMT9, read-out: Thermal shift (ΔTm)

Row | IC50 (KMT9 [1]; [4]) [nM] | Kd (KMT9 [2]; [5]) [nM] | ΔTm at 500 µM (KMT9 [3]; [6]) [°C] | IC50 (KMT9 [1]; [10]) [nM] | Kd (KMT9 [2]; [11]) [nM] | ΔTm at 500 µM (KMT9 [3]; [12]) [°C] | Compound | further results
1 | – | – | – | 1000 to 10000 | 100 to 1000 | 10 to 15 | COc1cc(OC)cc([C@H]2C[C@@H](n3cc(-c4ccn(C)n4)c4c(N)nc(Cl)nc43)[C@H](O)[C@@H]2O)c1 [Compound 678, (1R,2S,3R,5R)-3-[4-amino-2-chloro-5-(1-methylpyrazol-3-yl)pyrrolo[2,3-d]pyrimidin-7-yl]-5-(3,5-dimethoxyphenyl)cyclopentane-1,2-diol] | –
2 | – | – | – | 1000 to 10000 | 100 to 1000 | ≤ 10 | Cn1cc([C@H]2C[C@@H](n3ccc4c(N)nc(Cl)nc43)[C@H](O)[C@@H]2O)cn1 [Compound 661, (1R,2S,3R,5R)-3-(4-Amino-2-chloro-7H-pyrrolo[2,3-d]pyrimidin-7-yl)-5-(1-methyl-1H-pyrazol-4-yl)cyclopentane-1,2-diol] | –
3 | > 10000 | > 1000 | ≤ 10 | – | – | – | Nc1ncnc2c1ccn2[C@@H]1C[C@H](c2cccc(-c3cccnc3)c2)[C@@H](O)[C@H]1O [Compound 649, (1R,2S,3R,5R)-3-(4-amino-7H-pyrrolo[2,3-d]pyrimidin-7-yl)-5-(3-(pyridin-3-yl)phenyl)cyclopentane-1,2-diol] | –
4 | – | – | – | 100 to 1000 | ≤ 10 | 15 to 20 | Nc1nc(Cl)nc2c1c(Br)cn2[C@@H]1C[C@H](c2cccc(CN3CCC3)c2)[C@@H](O)[C@H]1O [Compound 673, (1R,2S,3R,5R)-3-(4-amino-5-bromo-2-chloro-7H-pyrrolo[2,3-d]pyrimidin-7-yl)-5-(3-(azetidin-1-ylmethyl)phenyl)cyclopentane-1,2-diol] | –
5 | 100 to 1000 | 100 to 1000 | 15 to 20 | – | – | – | CS(=O)(=O)n1ccc(-c2cn([C@@H]3C[C@H](CNCCCNCCc4ccccc4)[C@@H](O)[C@H]3O)c3nc(Cl)ncc23)n1 [Compound 622, (1R,2S,3R,5R)-3-(2-Chloro-5-(1-(methylsulfonyl)-1H-pyrazol-3-yl)-7H-pyrrolo[2,3-d]pyrimidin-7-yl)-5-(((3-(phenethylamino)propyl)amino)methyl)cyclopentane-1,2-diol] | –
6 | – | – | – | > 10000 | > 1000 | ≤ 10 | Nc1ncnc2c1ccn2[C@@H]1C[C@H](c2cn[nH]c2)[C@@H](O)[C@H]1O [Compound 658, (1R,2S,3R,5R)-3-{4-Aminopyrrolo[2,3-d]pyrimidin-7-yl}-5-(1H-pyrazol-4-yl)cyclopentane-1,2-diol] | –
7 | > 10000 | 100 to 1000 | ≤ 10 | – | – | – | Nc1ncnc2c1ccn2[C@@H]1C[C@H](c2cccc(-c3cnsc3)c2)[C@@H](O)[C@H]1O [Compound 650, (1R,2S,3R,5R)-3-(4-amino-7H-pyrrolo[2,3-d]pyrimidin-7-yl)-5-(3-(isothiazol-4-yl)phenyl)cyclopentane-1,2-diol] | –
8 | – | – | – | 1000 to 10000 | 10 to 100 | ≤ 10 | Nc1nc(Cl)nc2c1ccn2[C@@H]1C[C@H](c2cccc(OC(F)F)c2)[C@@H](O)[C@H]1O [Compound 676, (1R,2S,3R,5R)-3-{4-amino-2-chloropyrrolo[2,3-d]pyrimidin-7-yl}-5-[3-(difluoromethoxy)phenyl]cyclopentane-1,2-diol] | –

Further lines, the compound ahead of its results:

Row | Compound | IC50 (KMT9 [1]; [4]) [nM] | Kd (KMT9 [2]; [5]) [nM] | ΔTm at 500 µM (KMT9 [3]; [6]) [°C] | IC50 (KMT9 [1]; [10]) [nM] | Kd (KMT9 [2]; [11]) [nM] | ΔTm at 500 µM (KMT9 [3]; [12]) [°C] | further results
9 | CN1CCC([C@H]2C[C@@H](n3cc(-c4ccn(S(=O)(=O)c5ccccc5)n4)c4cnc(Cl)nc43)[C@H](O)[C@@H]2O)CC1 [Compound 495, (1R,2S,3R,5R)-3-(2-Chloro-5-(1-(phenylsulfonyl)-1H-pyrazol-3-yl)-7H-pyrrolo[2,3-d]pyrimidin-7-yl)-5-(1-methylpiperidin-4-yl)cyclopentane-1,2-diol] | 1000 to 10000 | 10 to 100 | 15 to 20 | – | – | – | –
10 | Nc1ncnc2c1ccn2[C@@H]1C[C@H](c2ccn[nH]2)[C@@H](O)[C@H]1O [Compound 391, (1R,2S,3R,5R)-3-(4-amino-7H-pyrrolo[2,3-d]pyrimidin-7-yl)-5-(1H-pyrazol-5-yl) cyclopentane-1,2-diol] | > 10000 | > 1000 | ≤ 10 | – | – | – | –
11 | CCc1cn([C@@H]2C[C@H](CNCCCNCCc3ccc(F)cc3)[C@@H](O)[C@H]2O)c2ncnc(N)c12 [Compound 381, (1R,2S,3R,5R)-3-(4-amino-5-ethyl-7H-pyrrolo[2,3-d]pyrimidin-7-yl)-5-(((3-((4-fluorophenethyl)amino)propyl)amino)methyl) cyclopentane-1,2-diol] | – | – | – | – | – | – | IC50 (KMT9 [1]; [7]): 1000 to 10000 nM; Kd (KMT9 [2]; [8]): 100 to 1000 nM; ΔTm at 500 µM (KMT9 [3]; [9]): 10 to 15 °C
12 | O[C@@H]1[C@@H](CNCCCNCCc2ccccc2)C[C@@H](n2cc(-c3nccs3)c3cnc(Cl)nc32)[C@@H]1O [Compound 638, (1R,2S,3R,5R)-3-(2-Chloro-5-(thiazol-2-yl)-7H-pyrrolo[2,3-d]pyrimidin-7-yl)-5-(((3-(phenethylamino)propyl)amino)methyl)cyclopentane-1,2-diol] | – | – | – | – | – | – | IC50 (KMT9 [1]; [7]): 1000 to 10000 nM; Kd (KMT9 [2]; [8]): 100 to 1000 nM; ΔTm at 500 µM (KMT9 [3]; [9]): 15 to 20 °C
13 | Nc1nc(Cl)nc2c1c(-c1ccn(S(=O)(=O)c3ccccc3)n1)cn2[C@@H]1C[C@H](C2CCN(CCc3ccccc3)CC2)[C@@H](O)[C@H]1O [Compound 519, (1R,2S,3R,5R)-3-{4-amino-5-[1-(benzenesulfonyl)pyrazol-3-yl]-2-chloropyrrolo[2,3-d]pyrimidin-7-yl}-5-[1-(2-phenylethyl)piperidin-4-yl]cyclopentane-1,2-diol] | – | – | – | 100 to 1000 | ≤ 10 | > 20 | –
14 | Nc1ncnc2c1c(-c1nc(Cc3ccccc3)cs1)cn2[C@@H]1C[C@H]([C@H]2CCNC2)[C@@H](O)[C@H]1O [Compound 589R, (1R,2S,3R,5R)-3-[4-Amino-5-(4-benzyl-1,3-thiazol-2-yl)pyrrolo[2,3-d]pyrimidin-7-yl]-5-[(3R)-pyrrolidin-3-yl]cyclopentane-1,2-diol] | 1000 to 10000 | 100 to 1000 | 10 to 15 | – | – | – | –
15 | Nc1ncnc2c1c(-c1nccs1)cn2[C@@H]1C[C@H](c2cc(Cl)cc(Cl)c2)[C@@H](O)[C@H]1O [Compound 394, (1R,2S,3R,5R)-3-(4-amino-5-(thiazol-2-yl)-7H-pyrrolo[2,3-d]pyrimidin-7-yl)-5-(3,5-dichlorophenyl) cyclo-pentane-1,2-diol] | – | – | – | – | – | – | IC50 (KMT9 [1]; [7]): > 10000 nM; Kd (KMT9 [2]; [8]): > 1000 nM; ΔTm at 500 µM (KMT9 [3]; [9]): ≤ 10 °C
16 | Nc1ncnc2c1ccn2[C@@H]1C[C@H]([C@@H]2CCCN2)[C@@H](O)[C@H]1O [Compound 399, (1R,2S,3R,5R)-3-(4-amino-7H-pyrrolo[2,3-a]pyrimidin-7-yl)-5-((S)-pyrrolidin-2-yl) cyclopentane-1,2-diol] | – | – | – | > 10000 | > 1000 | ≤ 10 | –
17 | COc1ccc([C@H]2C[C@@H](n3ccc4c(N)nc(Cl)nc43)[C@H](O)[C@@H]2O)cn1 [Compound 591, (1R,2S,3R,5R)-3-{4-amino-2-chloropyrrolo[2,3-d]pyrimidin-7-yl}-5-(6-methoxypyridin-3-yl)cyclopentane-1,2-diol] | – | – | – | 100 to 1000 | 10 to 100 | 10 to 15 | –
18 | CCc1cn([C@@H]2C[C@H](CNCCCNCCc3ccc(F)cc3F)[C@@H](O)[C@H]2O)c2ncnc(N)c12 [Compound 383, (1R,2S,3R,5R)-3-(4-amino-5-ethyl-7H-pyrrolo[2,3-d]pyrimidin-7-yl)-5-(((3-((2,4-difluorophenethyl)amino)propyl)amino)methyl) cyclopentane-1,2-diol] | – | – | – | – | – | – | IC50 (KMT9 [1]; [7]): 1000 to 10000 nM; Kd (KMT9 [2]; [8]): 10 to 100 nM; ΔTm at 500 µM (KMT9 [3]; [9]): 10 to 15 °C
19 | O[C@@H]1[C@@H](CN(CCCNCCc2ccccc2)c2cn[nH]c2)C[C@@H](n2cc(-c3cccs3)c3cncnc32)[C@@H]1O [Compound 616] | – | – | – | – | – | – | IC50 (KMT9 [1]; [7]): 1000 to 10000 nM; Kd (KMT9 [2]; [8]): 10 to 100 nM; ΔTm at 500 µM (KMT9 [3]; [9]): 10 to 15 °C
